For twelve compounds, IC50 results are on record in patent publication US20090258873A1, “Novel tetrahydropyridothiophenes” (priority 2005, published 2009).

A value given as a limit tells only on which side of the number the result lay.

In assay [1] the test system is RKO (RKOp27) human colon adenocarcinoma cells. The assay is described as follows: Alamar Blue cell viability assay, anti-proliferative/cytotoxic activity on proliferating RKOp27 cells. It is filed as cell-based. To be noted: no Ponasterone A, 72 hours incubation, read-out: IC50 RKO p27 uninduced (proliferating). How it is done:
The anti-proliferative I cytotoxic activity of the compounds described herein, can be tested on subclones of RKO (RKOp27) human colon adenocarcinoma cells (Schmidt et al., Oncogene 19, 2423-2429; 2000) using the Alamar Blue cell viability assay (described in O'Brien et al. Eur J Biochem 267, 5421-5426, 2000). The compounds are dissolved as 20 mM solutions in dimethylsulfoxide (DMSO) and subsequently diluted in semi-logarithmic steps. DMSO dilutions are further diluted 1:100 into Dulbecco's modified Eagle's medium (DMEM) containing 10% fetal calf serum to a final concentration twice as much as the final concentration in the test. RKO subclones are seeded into 96 well flat bottom plates at a density of 5000 cells per well in a volume of 50 μl per well. 24 hours after seeding the 50 μl each of the compound dilutions in DMEM medium are added into each well of the 96 Well plate. Each compound dilution is tested as quadruplicates. Wells containing untreated control cells are filled with 50 μl DMEM medium containing 1% DMSO. The cells are then incubated with the substances for 72 hours at 37° C. in a hunified atmosphere containing 5% carbon dioxide. To determine the viability of the cells, 10 μl of an Alamar Blue solution (Biosource) are added and the fluorescence is measured at an extinction of 544 nm and an emission of 590 nm. For the calculation of the cell viability the emission value from untreated cells is set as 100% viability and the emission rates of treated cells are set in relation to the values of untreated cells. Viabilities are expressed as % values.
The corresponding IC50 values of the compounds for anti-proliferative/cytotoxic activity are determined from the concentration-effect curves.
Representative IC50 values for anti-proliferation/cytotoxicity determined in the mentioned assay follow from the following table A, in which the numbers of the compounds correspond to the numbers of the examples.

Assay [2] concerns RKO colon adenocarcinoma cells (RKOp27) arrested by ectopic p27Kip1. The assay is described as follows: Alamar Blue cell viability assay on RKOp27 cells arrested by p27Kip1 expression induced with Ponasterone A (cell cycle specific mode of action). Format: cell-based. To be noted: Homo sapiens, RKOp27 cells arrested by p27Kip1 induced with 10 μM Ponasterone A, 72 hours incubation, read-out: IC50 RKO p27 induced (arrested). The procedure: To determine the cell cycle specific mode of action, subclones of RKO colon adenocarcinoma cells (RKOp27 or RKOp21 as described by Schmidt et al. in Oncogene 19, 2423-2429; 2000) are seeded into 96 well flat bottom plates at a density of 15000 cells per well in a volume of 50 μl per well in DMEM growth medium with 10% FCS containing 10 μM Ponasterone A. 24 hours after seeding the 50 μl each of the compound dilutions in DMEM medium are added into each well of the 96 Well plate. Each compound dilution is tested as quadruplicates. Wells containing untreated control cells are filled with 50 μl DMEM medium containing 1% DMSO. The cells are then incubated with the substances for 72 hours at 37° C. in a humidified atmosphere containing 5% carbon dioxide. To determine the viability of the cells, 10 μl of an Alamar Blue solution (Biosource) are added and the fluorescence was measured at an extinction of 544 nm and an emission of 590 nm. For the calculation of the cell viability the emission value from untreated cells is set as 100% viability and the emission rates of treated cells are set in relation to the values of untreated cells. Viabilities are expressed as % values. Viability is compared of proliferating cells grown in the absence of the inducer Ponasterone A, versus viability of cells arrested by the expression of ectopic p27Kip1 induced by Ponasterone A.

Consider `CC(CC(=O)Nc1sc2c(c1C#N)CCN(C(=O)CCc1nccn1C)C2)c1ccccc1` (racemic) [Example 34, (RS)—N-{3-Cyano-6-[3-(1-methyl-1H-imidazol-2-yl)-propanoyl]-4,5,6,7-tetrahydro-thieno[2,3-c]pyridin-2-yl}-3-phenyl-butyramide], for which the IC50 in assay [1] is no more than 300 nM; in assay [2], no less than 10 µM.
Turning to `Cc1cn(CC(=O)N2CCc3c(sc(NC(=O)CC(C)c4ccccc4)c3C#N)C2)cn1` (racemic) [Example 40, (RS)—N-{3-Cyano-6-[2-(4-methyl-imidazol-yl)-ethanoyl]-4,5,6,7-tetrahydro-thieno[2,3-c]pyridin-2-yl}-3-phenyl-butyramide], the IC50 in assay [1] was 300 to 2000 nM; in assay [2], no less than 40 µM.
Consider `COCC(=O)N1CCc2c(sc(NC(=O)CCc3ccco3)c2C#N)C1` [Example 13, N-[3-Cyano-6-(2-methoxy-ethanoyl)-4,5,6,7-tetrahydro-thieno[2,3-c]pyridin-2-yl]-3-furan-2-yl-propionamide], for which the IC50 in assay [1] is no more than 300 nM; in assay [2] it was greater than 100 µM.
As for `N#Cc1c(NC(=O)CCC2CCCCC2)sc2c1CCN(C(=O)Cc1ccccn1)C2` [Example 53, N-[3-Cyano-6-(2-pyridin-2-yl-ethanoyl)-4,5,6,7-tetrahydro-thieno[2,3-c]pyridin-2-yl]-3-cyclohexyl-propionamide], the IC50 was no more than 300 nM in assay [1] and greater than 100 µM in assay [2].
Regarding `CCCC(=O)N1CCc2c(sc(NC(=O)CCc3ccccc3)c2C#N)C1` [Example 28, N-(6-Butyryl-3-cyano-4,5,6,7-tetrahydro-thieno[2,3-c]pyridin-2-yl)-3-phenyl-propionamide], the values for the IC50 in assay [1] and in assay [2] were no more than 300 nM and greater than 100 µM, respectively.
For the compound `N#Cc1c(NC(=O)CCc2ccccc2)sc2c1CCN(C(=O)CCn1ccnc1)C2` [Example 16, N-[3-Cyano-6-(3-imidazol-1-yl-propanoyl)-4,5,6,7-tetrahydro-thieno[2,3-c]pyridin-2-yl]-3-phenyl-propionamide], the values for the 50% inhibitory concentration (IC50) in assay [1] and in assay [2] were no more than 300 nM and greater than 100 µM, respectively.
Regarding `Cc1cn(CC(=O)N2CCc3c(sc(NC(=O)CCc4ccccc4)c3C#N)C2)c(C)n1` [Example 43, N-{3-Cyano 6-[2-(2,4-dimethyl-imidazol-1-yl)-ethanoyl]-4,5,6,7-tetrahydro-thieno[2,3-c]pyridin-2-yl}-3-phenyl-propionamide], the IC50 in assay [1] was 300 to 2000 nM; in assay [2], no less than 40 µM.
Turning to `CC(CC(=O)Nc1sc2c(c1C#N)CCN(C(=O)Cc1cccnc1)C2)c1ccccc1` (racemic) [Example 23, (RS)—N-[3-Cyano-6-(2-pyridin-3-yl-ethanoyl)-4,5,6,7-tetrahydro-thieno[2,3-c]pyridin-2-yl]-3-phenyl-butyramide], the IC50 in assay [1] was no more than 300 nM; in assay [2], greater than 100 µM.
The like results for `CC(CC(=O)Nc1sc2c(c1C#N)CCN(C(=O)CCc1ccncc1)C2)c1ccccc1` (racemic) [Example 36, (RS)—N-[3-Cyano-6-(3-pyridin-4-yl-propanoyl)-4,5,6,7-tetrahydro-thieno[2,3-c]pyridin-2-yl]-3-phenyl-butyramide] were, in that order, 300 to 2000 nM and no less than 10 µM.
For the compound `COCCOCC(=O)N1CCc2c(sc(NC(=O)CCc3ccccc3)c2C#N)C1` [Example 5], the IC50 is 300 to 2000 nM in assay [1] and greater than 100 µM in assay [2].
The matching figures for `CC(=O)OCC(=O)N1CCc2c(sc(NC(=O)CCc3ccccc3)c2C#N)C1` [Example 7, Acetic acid 2-[3-cyano-2-(3-phenyl-propanoylamino)-4,7-dihydro-5H-thieno[2,3-c]pyridin-6-yl]-2-oxo-ethyl ester]: no more than 300 nM and greater than 100 µM.
Turning to `CC(CC(=O)Nc1sc2c(c1C#N)CCN(C(=O)Cc1ccncc1)C2)c1ccccc1` (racemic) [Example 24, (RS)—N-[3-Cyano-6-(2-pyridin-4-yl-ethanoyl)-4,5,6,7-tetrahydro-thieno[2,3-c]pyridin-2-yl]-3-phenyl-butyramide], the results for the 50% inhibitory concentration (IC50) in assay [1] and in assay [2] were no more than 300 nM and greater than 100 µM, respectively.
